Reference: patent US20200270588A1, “GLUCOSYL TRANSFERASE POLYPEPTIDES AND METHODS OF USE” (Syngenta Participations AG, priority 2017, published 2020)

Assays:
Type in all cases: biochemical
[1] = molecular target: T1, Zea mays bx9 glucosyl transferase (C-terminally his tagged SEQ ID NO: 1) (Zea mays, UniProt B4G072); assay: UDP-Glo glucosyl transferase assay, purified enzyme; settings: for Activity: herbicide mM: V 0.300, VI 0.250, VII 0.210, IV, VIII, XI, XXI, XX, XVIII, XVI, XV, XIV 0.200, others 1.000; for kcat: 0.5 mM UDP-glucose, 25 C, pH 7.5, DMSO reagent blank as control
T1 construct: His tag (C); made in house; host or cells: E. coli BL21 (DE3), pET24a
T1 sequence (B4G072 1-462): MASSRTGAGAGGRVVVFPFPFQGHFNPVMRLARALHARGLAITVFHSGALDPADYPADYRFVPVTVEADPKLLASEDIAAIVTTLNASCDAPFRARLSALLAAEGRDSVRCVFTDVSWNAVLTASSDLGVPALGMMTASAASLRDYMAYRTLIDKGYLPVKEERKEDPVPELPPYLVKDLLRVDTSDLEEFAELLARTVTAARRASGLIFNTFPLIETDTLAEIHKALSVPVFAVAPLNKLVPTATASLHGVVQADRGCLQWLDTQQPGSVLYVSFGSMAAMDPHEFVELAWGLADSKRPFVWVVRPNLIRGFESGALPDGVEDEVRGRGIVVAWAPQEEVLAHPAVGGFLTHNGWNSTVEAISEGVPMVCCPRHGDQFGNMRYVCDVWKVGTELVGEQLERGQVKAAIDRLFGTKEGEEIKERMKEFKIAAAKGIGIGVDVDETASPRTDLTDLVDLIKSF
Experimental: (§1) Glucosyl transferase activity is assayed via measurement of acceptor substrate-dependent production of UDP from ultrapure UDP-glucose using the Promega UDP-Glo™ method and according to the manufacturer's instructions. Assays are run in 96 well microtiter plates.
(§2) Enzyme, typically at a stock concentration of ˜2 mg/ml is diluted to an appropriate concentration in 50 mM K^+ Hepes buffer at pH7.5 containing 0.5 mg/mL bovine serum albumin (BSA) and 5 ul aliquots of this diluted enzyme added to each well of a Perkin Elmer white ½ area 96 well plate. […] Assays are run for an appropriate time (usually 10 to 60 min) so that the amount of UDP formed lies within the most nearly linear part of the UDP standard curve and are stopped with the addition and mixing of 25 ul UDP-Glo™ detection reagent (prepared as described below). Plates are then incubated at room temperature for 60 minutes and then read in a luminescence plate reader (Perkin Elmer Envision 2130 Multilabel Reader). A UDP standard curve is run alongside each set of assays and reagent blank control assays run with DMSO in place of test herbicide. Typically, 300 pmol of UDP corresponds to a Relative Luminescence Unit (RLU) reading of about 1.5E7 and the response curve between 0 and 600 pmol is fitted to a polynomial function (see for example FIG. 2).
(§3) The UDP-Glo™ reagents are made up and used according to the manufacturer's instructions. Thus, Nucleotide Detection Buffer and ATP are combined to make nucleotide detection reagent (NDR) dispensed into aliquots and frozen to be freshly thawed before use.
(§4) Km and kcat values in respect of UDP-glucose are derived by carrying out experiments to measure initial rates over a suitable range of concentrations of UDP glucose out at a fixed near saturating concentration of acceptor substrate. Best fit values of kcat, Km and kcat/Km are obtained by direct fitting of the data to the Michaelis-Menten equation using Graphpad Prism™ software.

[2] = molecular target: T2, SEQ ID NO 17, zmBX9 S117V, M279F, A334K mutant (Zea mays, UniProt B4G072, A334K/M279F/S117V); assay: as above; settings: herbicide mM: V 0.300, VI 0.250, VII 0.210; IV, VIII, XI, XXI, XX, XVIII, XVI, XV, XIV 0.200; others 1.000
T2 construct: polypeptides were the C-terminally his-tagged; His tag (C); made in house
Experimental: as §1, §2, §3, §4
(§5) Variants of C-terminally his tagged SEQ ID No:1 (w/t bx9 from Zea mays), exemplified as SEQ ID 16-30, were cloned, purified and assayed as described in Example 1. FIG. 4 depicts the data from some experiments to determine the kinetic parameters of some of these variants in respect of herbicide VI and table 12 summarizes the estimates of kinetic parameters obtained from further such experiments in respect of a range of herbicides.
(§6) Table 13 summarizes the results obtained from assays, run as described in Example 1, using a variety of alcohol and aminal PSII herbicides as substrates of the Zea mays bx9 w/t (i.e. C-terminally his tagged SEQ ID no 1) and various mutants of the same, selected from SEQ ID NO: 16-30). All of these proteins were C-terminally his-tagged, expressed and purified as described in Example 1. Assays were run and analyzed as described in example 1. It is seen that various of the mutations herein and combinations thereof led to significant improvements (over the w/t bx9 protein) in catalytic activity versus various of the herbicides and that these improvements are often of sufficient magnitude to be useful for conferring improved herbicide tolerance upon crop. This is especially the case given that even the unmutated w/t bx9 enzyme which has only modest glucosyl transferase activity (for example against compounds V and VI) was nevertheless adequately active to confer significant herbicide tolerance in the glass house (as shown in example 9) even without mutational improvement. It is also seen that particular mutations can lead to very much improved activity in respect of some chemistries but not to others but that, overall, there is at least one variant within the scope of the current invention that provides significant and useful improvement in tolerance to each of the chemistries tested.

[3] = molecular target: T3, SEQ ID NO 21, mutant of Zea mays bx9 glucosyl transferase (Zea mays, UniProt B4G072, A334K/F21Y/L194V/M279F/S117V); assay: as above; settings: lower block, concentration printed only in upper block: V 0.300, VII 0.210; IV, VIII, XI, XXI, XX, XVIII, XVI, XV, XIV 0.200; others 1.000 mM
T3 construct: His tag (C); made in house
Experimental: as §1, §2, §3, §4, §5, §6

[4] = molecular target: T4, SEQ ID NO 22, mutant of Zea mays bx9 glucosyl transferase (Zea mays, UniProt B4G072, A334K/F21Y/M279F/S117V/T220P); assay: as above; settings: lower block, concentration printed only in upper block: V 0.300, VII 0.210; IV, VIII, XI, XXI, XX, XVIII, XVI, XV, XIV 0.200; others 1.000 mM
T4 construct: His tag (C); made in house
Experimental: as §1, §2, §3, §4, §5, §6

[5] = molecular target: T5, SEQ ID NO 18, mutant of Zea mays bx9 glucosyl transferase (Zea mays, UniProt B4G072, A281K/A334K/F21Y/M279F/S117V); assay: as above; settings: herbicide mM: V 0.300, VI 0.250, VII 0.210; IV, VIII, XI, XXI, XX, XVIII, XVI, XV, XIV 0.200; others 1.000
T5 construct: His tag (C); made in house
Experimental: as §1, §2
(§7) The UDP-Glo™ reagents are made up and used according to the manufacturer's instructions. Thus, Nucleotide Detection Buffer and ATP are combined to make nucleotide detection reagent (NDR) dispensed into aliquots and frozen to be freshly thawed before use. […]
as §6

[6] = molecular target: T6, SEQ ID NO 19, mutant of Zea mays bx9 glucosyl transferase (Zea mays, UniProt B4G072, A281K/A334K/L194V/M279F/S117V); assay: as above; settings: herbicide mM: V 0.300, VI 0.250, VII 0.210; IV, VIII, XI, XXI, XX, XVIII, XVI, XV, XIV 0.200; others 1.000
T6 construct: His tag (C); made in house
Experimental: as §1, §2, §7, §6

[7] = molecular target: T7, SEQ ID NO 23, mutant of Zea mays bx9 glucosyl transferase (Zea mays, UniProt B4G072, A334K/F21Y/L194C/M279F/S117V); assay: as above; settings: lower block, concentration printed only in upper block: V 0.300, VII 0.210; IV, VIII, XI, XXI, XX, XVIII, XVI, XV, XIV 0.200; others 1.000 mM
T7 construct: His tag (C); made in house
Experimental: as §1, §2, §7, §6

[8] = molecular target: T8, SEQ ID NO 20, mutant of Zea mays bx9 glucosyl transferase (Zea mays, UniProt B4G072, A281K/A334K/F21Y/L194V/M279F/S117V); settings: lower block, concentration printed only in upper block: V 0.300, VII 0.210; IV, VIII, XI, XXI, XX, XVIII, XVI, XV, XIV 0.200; others 1.000 mM
T8 construct: His tag (C); made in house
Experimental: as §1
as §2, with “herbicide.” for “herbicide. Typically, 300 pmol of UDP corresponds to a Relative Luminescence Unit (RLU) reading of about 1.5E7 and the response curve between 0 and 600 pmol is fitted to a polynomial function (see for example FIG. 2).”
as §3, §4
All of these proteins were C-terminally his-tagged, expressed and purified as described in Example 1. Assays were run and analyzed as described in example 1.

Row | Compound | Activity [1] [pmol/sec/pmol enzyme] | Activity [2] [pmol/sec/pmol enzyme] | Activity [3] [pmol/sec/pmol enzyme] | Activity [4] [pmol/sec/pmol enzyme] | Activity [5] [pmol/sec/pmol enzyme] | Activity [6] [pmol/sec/pmol enzyme] | Activity [7] [pmol/sec/pmol enzyme] | Activity [8] [pmol/sec/pmol enzyme] | kcat [1] [s⁻¹]
1 | C[C@H]1C(O)N(c2cc(C(F)(F)F)ccn2)C(=O)N1C (stereo partly shown) [XXIV] | 0.001 | 0.528 | 1.154 | 0.908 | 0.982 | 1.358 | 0.816 | 1.462 | 
2 | C[C@@H]1C(=O)N(c2noc(C(C)(C)C)c2C#N)C(O)[C@H]1C (stereo partly shown) [XXVI] | −0.001 | 0.020 | 0.040 | 0.073 | 0.051 | 0.095 | 0.034 | 0.143 | 
3 | CC1C(O)N(c2cc(C(F)(F)F)c(Cl)cn2)C(=O)N1C (stereo not shown) [XIX] | −0.001 | 0.157 | 0.234 | 0.315 | 0.467 | 0.363 | 0.207 | 0.414 | 
4 | CN1CC(O)N(c2cc(C(C)(C)C)c(Cl)nn2)C1=O (stereo not shown) [III] | 0.001 | 0.032 | 0.020 | 0.144 | 0.170 | 0.097 | 0.066 | 0.144 | 
5 | CON1C(=O)N(c2cc(C(F)(F)F)c(Cl)cn2)C(O)C1C (stereo not shown) [XXI] | 0.000 | 0.919 | 1.827 | 1.714 | 1.524 | 1.534 | 1.746 | 1.457 | 0.0001
6 | CN1CC(O)N(c2nnc(C(C)(C)C)s2)C1=O (stereo not shown) [IX] | 0.017 | 0.035 | 0.012 | 0.071 | 0.115 | 0.070 | 0.013 | 0.068 | 0.036
7 | C[C@@H]1C(O)N(c2cc(C(C)(C)C)on2)C(=O)[C@@H]1C (stereo partly shown) [VIII] | −0.002 | 0.008 | 0.016 | 0.061 | 0.124 | 0.077 | 0.017 | 0.145 | 
8 | Cc1cnc(N2C(=O)N(C)C(C)C2O)cc1C(F)(F)F (stereo not shown) [XX] | −0.001 | 0.244 | 0.338 | 0.563 | 0.751 | 0.662 | 0.249 | 0.698 | 
9 | CN1CC(O)N(c2cc(C(C)(C)C)on2)C1=O (stereo not shown) [XXII] | 0.000 | 0.023 | 0.015 | 0.101 | 0.186 | 0.080 | 0.020 | 0.120 | 
10 | C[C@H]1C(=O)N(c2noc(C(C)(C)C)c2C#N)C(O)[C@@H]1C (stereo partly shown) [XXIII] | −0.003 | 0.014 | 0.034 | 0.067 | 0.089 | 0.072 | 0.021 | 0.119 | 
